Row | Structure (SMILES) | melting point [°C]
1 | C=CCOc1cc(C=CC(=O)O)ccc1OC(C)=O | 154 to 155
2 | N#Cc1c(N2CCCC2)cc(-c2ccccc2)c2c1Cc1ccccc1-2 | 210 to 212
3 | CCCc1c(OCCCCCOc2ccccc2CCC(=O)O)ccc2c1OCCC2=O | 75 to 76
4 | CC1C=C(c2nc3cccc(F)c3s2)C=CC1=N (stereo not given) | 175 to 177
5 | CSc1nc(N)nc2c1ncn2COCCO | 188 to 191
6 | O=CNc1cc(Cl)ccc1C=O | 131 to 136
7 | FC(F)(F)Oc1cccc(C=Cc2nc(CNc3ccc(CCCCn4ccnn4)cc3)co2)c1 | 91 to 93
8 | N#Cc1ccc(NC(=O)c2cccc(OCc3ccc(C(F)(F)F)cc3)c2)cc1 | 167 to 168
9 | CN(C)C(=N)Nc1ccccc1-c1cccc(S(C)(=O)=O)c1 | 113 to 114
10 | O=[N+]([O-])c1cc(C(F)(F)F)cc2sc(=S)sc12 | 163 to 165
11 | Cc1c(C(=O)c2sc(Nc3ccc(S(N)(=O)=O)cc3)nc2N)sc2ccccc12 | 274 to 276
12 | CC(=O)NC1Cc2cc(CCN3CCN(c4nsc5ccccc45)CC3)ccc2C1(C)C (stereo not given) | 58 to 68
13 | CCCCC(=O)NCCc1c(OC)ccc2ccccc12 | 69 to 75
14 | CC(C)Nc1nc(Nc2cccc(NS(C)(=O)=O)c2)nc2[nH]cnc12 | 161 to 165
15 | Oc1cc(O)c2c(c1)Oc1cc(Br)ccc1CC2 | 178 to 180
16 | COc1c(Cl)cc2c(=O)[nH]c(=O)[nH]c2c1OC | 272 to 273
17 | COC(=O)c1c(N)cccc1[N+](=O)[O-] | 105 to 107
18 | CN1C(=O)C(C)(C)N=C(c2ccccc2F)c2c(Cl)c(N)c(Cl)c(Cl)c21 | 165 to 166
19 | CN(CCc1ccc(Nc2ncc3c(n2)-c2ccccc2[C@H](c2ccc(F)cc2)C3)cc1)C1CCCCC1 | 160 to 162
20 | CCS(=O)(=O)c1cc(C(=O)NCC2CCCN2CC2=CCCC2)c(OC)cc1N (stereo not given) | 125 to 126
21 | CCCCCCCCCCOC(=O)C1=C(C)NC(N)=C(C(=O)OCC)C1c1cccc([N+](=O)[O-])c1 (stereo not given) | 190 to 191
22 | CCCCn1ncc(/C=C(\Cc2cc3c(cc2OC)CCO3)C(=O)O)c1-c1ccc(Cl)cc1OCc1ccccc1C(=O)O | 116 to 118
23 | NN(Cc1nccs1)C1CCCN(C(=O)c2ccc(Nc3nccc(Nc4ccc(F)cc4)n3)cc2)C1 (stereo not given) | 160 to 165
24 | CCOC(=O)C1=C(C)NC(C)=C(/C=C/S(=O)(=O)NC(C)C)C1Cc1cccc([N+](=O)[O-])c1 (stereo not given) | 191 to 193
25 | O=C(O)[C@@H]1CC(=Cc2ccccc2)CN1C(=O)OCc1ccccc1 | 142 to 150
26 | COc1ccccc1NC(=O)Nc1nc(O)ncc1F | 247 to 250

The remaining lines, values ahead:

Row | melting point [°C] | Structure (SMILES)
27 | 60 to 63 | Cc1nnc(SCc2ccccc2)s1
28 | 107 to 110 | CC(C)(C)C(=O)ON1C(C)(C)CC(OC(=O)c2ccccc2)CC1(C)C
29 | 248 | Cn1nnnc1-c1ccc2oc3ncccc3c(=O)c2c1
30 | 118 to 120 | C[C@@H]1[C@H](O)[C@@H](C)C=C(S(=O)(=O)c2ccccc2)[C@@H]2O[C@H]12
31 | 130 | O=[N+]([O-])c1cccc(O)c1Cl
32 | 103 to 105 | CC(C)(C)N(C=O)N=NNC=O
33 | 241 to 242 | NS(=O)(=O)c1cc(C(=O)O)cc(SCc2ccccc2)c1Cl
34 | 144 to 145 | O=C(Nc1ccc(CCCc2nnn[nH]2)cc1)C(F)(F)C(F)(F)C(F)(F)F
35 | 236 to 238 | NC(=O)c1cn(-c2ccccc2)nc1-c1ccc([N+](=O)[O-])o1
36 | 168 to 170 | CNc1c([N+](=O)[O-])cnc2ccccc12
37 | 95 to 96 | OC(Cn1cncn1)(c1ccc(F)cc1F)C(F)(F)C(F)(F)F (stereo not given)
38 | 57 to 58 | O=C1c2ccccc2CN1CCCCSc1ccncc1
39 | 207 to 208 | O=C(Nc1ccccc1)c1cnc2c(C(F)(F)F)cccc2c1-c1ccccc1
40 | 185 to 195 | CNC(=O)C1CC(c2ccc(-c3ccc(N4C[C@H](Cn5ccnn5)OC4=O)cc3F)cn2)=NO1 (stereo not given in full)

From a melting point compilation (Tetko et al.; mined from patent text by program, amines drawn as free bases though some values may be those of a salt)
